In EP3412361A1, “METHOD FOR PREPARING PARTICULATE FORM CAESIUM-REMOVAL INORGANIC ION ADSORBENT AND PRODUCT AND APPLICATION THEREOF” (Tsinghua University, priority 2015, dated 2017):

Assay: Monolayer dispersion threshold of metal salt on silica gel by XRD diffraction peak intensity extrapolation
Type: physicochemical
Conditions: salt impregnated on silica gel at 90 °C, dried 120 °C 10 h
Protocol: Through equal volume impregnation method, silica gel pellets is impregnated with a series of different concentrations of salt solution containing M^n+ ion. The impregnated solid materials are dried in an oven to obtain a silica gel intermediate M/SiO2 with a different amounts of M salt on the surface. Based on monolayer dispersion principle of a metal salt on the surface of carrier, the monolayer dispersion threshold of various kinds of M^n+ ion salts on silica gel surface is determined by X - ray diffraction method. The value is the monolayer loading of various salts on the surface of silica gel carrier.
Further, in the step (1), it is necessary to determine monolayer dispersion threshold of M^n+ ion salt on the surface of silica gel, which may be measured by loading a series of different amounts of the M^n+ ion salt onto the surface of silica gel by the solution impregnation method followed by drying to obtain the sample to be tested.
The silica gel mass is 5-10 g, and the loading amount of M^n+ ion salt on the silica gel is 0.02g, 0.05g, 0.1g, 0.5g, 1.0g, 2.0g, 3.0g, 4.0g, 5.0g, 6.0 g per g silica gel; the ratio by volume of the M^n+ ion solution to the silica gel is 0.5-2.
The obtained samples series is subjected to X-ray diffraction (XRD) and the strongest diffraction peak intensity (y-axis) is linearly correlated with the corresponding M^n+ ion salt loading (x-axis) in which the intercept on the x-axis is the monolayer dispersion threshold.
Further, in the step (1), the impregnation process is carried out in a water bath at a temperature of 90 °C, and the mixture is continuously stirred until the liquid is completely evaporated and the solute M^n+ ion salt is fully supported on the silica gel surface.
Further, in the step (1), the silica gel intermediate M/ SiO2 is dried in an oven for 10 h at a temperature of 120 °C.
Then, 1 g of silica gel pellets were added to each beaker and the beaker was placed in a water bath at a temperature of 90 °C. In the process of evaporation of water, the mixture was being stirred with a glass rod until the water evaporated and the pellets were basically dry. The beaker was dried in an oven at 120 °C for 10 hours.
Then, 1 g of silica gel pellets were added to each beaker and the beaker was placed in a water bath at a temperature of 90 °C.

Q: With `O.O=[N+]([O-])[O-].O=[N+]([O-])[O-].[O]=[Zr+2]` [ZrO(NO3)2] as the compound, how does the “monolayer dispersion threshold on silica gel” value (shortened to “monolayer dispersion threshold”) read?
A: The value was 1.02 g/g.

Q: For `CC(=O)[O-].CC(=O)[O-].O.O.[Zn+2]` [Zn(AC)2, zinc acetate], which “monolayer dispersion threshold” value is on record?
A: The value was 0.18 g/g.

Q: With `O.O.O.O.O.O.O=[N+]([O-])[O-].O=[N+]([O-])[O-].[Co+2]` [Co(NO3)2, cobalt nitrate] as the compound, how does the “monolayer dispersion threshold” value read?
A: Its value is 0.63 g/g.

Q: Which “monolayer dispersion threshold” value does the source give for `[Cl][Fe]([Cl])[Cl]` [FeCl3, ferric chloride] here?
A: Its value is 0.43 g/g.

Q: Which “monolayer dispersion threshold” value does the source give for `O=S(=O)([O-])[O-].[Cu+2]` [CuSO4, copper sulfate] here?
A: The value was 0.79 g/g.
